Laboratory results reported in PubChem BioAssay (NCI).
“And” between values parts separate entries of the source, which are not always exact repeats. Equal entries are not always repeated.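 Five compound concentrations were applied to cells in 96-well plates for 48 hours; endpoints were derived by simple linear interpolation of the resulting dose-response curve. GI50 is the concentration that inhibits growth by half. TGI marks complete inhibition of growth.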 Where a SMILES comes first, the peptide text is derived from it. [ ]: non-standard residue; d: D form. The star is where a group is joined. ξ: configuration not given here. ξF = NC(Cc1ccccc1)C(=O)O; Cbz = O=C(OCc1ccccc1)*; Aib = CC(C)(N)C(=O)O

Experiments:
Test in all cases: NCI anticancer screen, dose series, 48 h
HL-60(TB) leukemia = test system: HL-60(TB) leukemia
IGROV1 ovarian = test system: IGROV1 ovarian
PC-3 prostate = test system: PC-3 prostate
RXF 393 renal = test system: RXF 393 renal
SK-OV-3 ovarian = test system: SK-OV-3 ovarian
MALME-3M melanoma = test system: MALME-3M melanoma
COLO 205 colon = test system: COLO 205 colon
SN12C renal = test system: SN12C renal
EKVX NSCLC = test system: EKVX NSCLC
A498 renal = test system: A498 renal

Compound | TGI (HL-60(TB) leukemia) | GI50 (IGROV1 ovarian) [µM] | TGI (IGROV1 ovarian) | TGI (PC-3 prostate) [µM] | GI50 (RXF 393 renal) [µM] | TGI (RXF 393 renal) | GI50 (SK-OV-3 ovarian) [µM] | TGI (SK-OV-3 ovarian) | GI50 (MALME-3M melanoma) [µM] | TGI (MALME-3M melanoma) | GI50 (COLO 205 colon) [µM] | TGI (COLO 205 colon) | GI50 (SN12C renal) [µM] | TGI (SN12C renal) | GI50 (EKVX NSCLC) [µM] | TGI (EKVX NSCLC) | GI50 (A498 renal) [µM] | TGI (A498 renal)
CCN(CC)CC[n+]1ccc2c(C)c3[nH]c4ccc(O)cc4c3c(C)c2c1 | 33.2 µM and 33.1 µM | 4.79 | 38.6 µM and 73 µM | 31.8 | 13.9 | 56.5 µM and 57.2 µM | 5.94 | 66.9 µM and 58.4 µM | 3.91 | 19.3 µM and 22.3 µM | 2.6 | 17.4 µM and 31 µM | 0.211 | 6.42 µM and 3.25 µM | 2.03 | 38.8 µM and 14.8 µM | 20.5 | 74.6 µM and 84.3 µM
Nc1[nH]c(=S)nc2nc3c(c(-c4ccccc4)c12)CCCC3 | > 100 µM | – | > 100 µM | > 100 | – | – | – | > 100 µM | – | > 100 µM | – | > 100 µM | – | > 100 µM | – | > 100 µM | – | –
CCCCCCCCCCCCCC1=C(O)C(=O)C(CC2=C(O)C(=O)C(CCCCCCCCCCCCC)=C(O)C2=O)=C(O)C1=O | > 100 µM | – | > 100 µM | > 100 | – | 32.2 µM | – | > 100 µM | – | > 100 µM | – | > 100 µM | – | > 100 µM | – | > 100 µM | – | > 100 µM
CN(C)CCNC(=O)c1cc(Cl)cc2cc3ccccc3nc12 | 2.62 µM | – | 8.32 µM | – | – | 2.81 µM | – | 9.27 µM | – | 14.9 µM | – | 1.66 µM | – | 6.9 µM | – | 4.81 µM | – | 2.2 µM
Cc1[nH]c(=O)[nH]c(=O)c1/C=C/C(=O)NC(CO)CS(=O)CS(C)=O (centres undefined) | 57.4 µM | – | 103 µM | – | – | 125 µM | – | 169 µM | – | 57.9 µM | – | 132 µM | – | 91.5 µM | – | 66.4 µM | – | 130 µM
CCOC(=O)CCC(C(=O)OCC)n1nc2ccc(Nc3c(C)[n+]([O-])c4cc(F)c(OCC)cc4[n+]3[O-])cc2n1 (centres undefined) | > 100 µM | – | > 100 µM | > 100 | – | 32.5 µM | – | > 100 µM | – | > 100 µM | – | > 100 µM | – | > 100 µM | – | 98.1 µM | – | > 100 µM
COc1cc(/C=C2\N=C(c3ccccc3)N(c3ccc(C(=O)c4ccccc4)cc3N3C(=O)/C(=C/c4ccc(O)c(OC)c4)N=C3c3ccccc3)C2=O)ccc1O | 16 µM | – | 29.7 µM | 26.7 | – | – | – | 45 µM | – | – | – | 32.3 µM | – | 62.7 µM | – | 76.4 µM | – | 36.7 µM
CCCCCCCCCCCCCCCCCCNc1ccn(C2OC(CO)C(OP(=O)(O)OCC(O)COP(=O)(O)OCC3OC(n4cc(F)c(NCCCCCCCCCCCCCCCCCC)nc4=O)CC3O)C2O)c(=O)n1 (centres undefined) | > 50 µM | – | > 50 µM | > 50 | – | – | – | > 50 µM | – | > 50 µM | – | > 50 µM | – | > 50 µM | – | > 50 µM | – | > 50 µM
CCOC(=O)CNC(=O)C(Cc1ccccc1)NC(=O)C(C)(C)NC(=O)OCc1ccccc1 (centres undefined) (Cbz-[Aib]-[ξF]-Gly-OEt) | > 100 µM | – | > 100 µM | > 100 | – | – | – | – | – | 36.2 µM | – | > 100 µM | – | – | – | > 100 µM | – | > 100 µM
CCCCN1C(=O)c2c(Br)sc(Br)c2C1=O | – | – | > 100 µM | > 100 | – | > 100 µM | – | > 100 µM | – | > 100 µM | – | 39.1 µM | – | 95.8 µM | – | > 100 µM | – | > 100 µM
CC(C)(C)c1ccc2c(c1)C#Cc1cc(C(C)(C)C)ccc1OCCCO2 | > 100 µM | – | > 100 µM | > 100 | – | > 100 µM | – | – | – | > 100 µM | – | > 100 µM | – | > 100 µM | – | > 100 µM | – | > 100 µM
OCC(O)CNc1ncnc2ccccc12 (centres undefined) | > 100 µM | – | > 100 µM | > 100 | – | > 100 µM | – | > 100 µM | – | > 100 µM | – | > 100 µM | – | > 100 µM | – | > 100 µM | – | > 100 µM
COC(=O)C1=C(C)N2CCSC2(C)C(C(=O)OC)C1c1cccc(Cl)c1 (centres undefined) | 49.3 µM | – | > 100 µM | – | – | 53.5 µM | – | – | – | – | – | 35.4 µM | – | – | – | 42.1 µM | – | –
O=C(CSCC(=O)N/N=C/c1ccccc1)N/N=C\c1ccccc1 | – | – | > 100 µM | > 100 | – | > 100 µM | – | > 100 µM | – | > 100 µM | – | > 100 µM | – | > 100 µM | – | > 100 µM | – | –
N#CC1=C2SCCN2C(=O)C(C#N)C12CCCCC2 (centres undefined) | – | – | > 100 µM | > 100 | – | > 100 µM | – | > 100 µM | – | > 100 µM | – | > 100 µM | – | > 100 µM | – | > 100 µM | – | > 100 µM
C=C1C(=O)O[C@@H]2/C=C(\C)CC/C=C(\C)CC[C@@]12O | 3.02 µM | – | 7.63 µM | 15.6 | – | 0.897 µM | – | 54.4 µM | – | 3.05 µM | – | 4.3 µM | – | 7.91 µM | – | 12.1 µM | – | 24.8 µM
Cc1cc2c(c(O)c1-c1c(C)cc(O)c3c1C(=O)C=CC3=O)C(=O)C=CC2=O | – | – | 5.11 µM | 19 | – | 2.5 µM | – | 29 µM | – | – | – | 0.656 µM | – | 7.59 µM | – | – | – | 18.9 µM
O=C(Oc1c(Cl)cc(C2(c3cc(Cl)c(OC(=O)c4ccccc4)c(Cl)c3)CCCCC2)cc1Cl)c1ccccc1 | 23.5 µM | – | 23.4 µM | 21.3 | – | 25.9 µM | – | 31.2 µM | – | – | – | 19.6 µM | – | 28.2 µM | – | 24.9 µM | – | 24.1 µM
S=c1c2[nH]cnc2ncn1CCSC1=NC=NC2=NC=NC21 (centres undefined) | > 100 µM | – | > 100 µM | > 100 | – | > 100 µM | – | > 100 µM | – | > 100 µM | – | > 100 µM | – | > 100 µM | – | > 100 µM | – | > 100 µM
CNC1Cc2c[nH]c3cccc(c23)C12C=C(C)C(=O)O2 (centres undefined) | > 100 µM | – | > 100 µM | > 100 | – | > 100 µM | – | > 100 µM | – | > 100 µM | – | > 100 µM | – | > 100 µM | – | > 100 µM | – | > 100 µM
